Source: ChEMBL document CHEMBL5505958, “Optimization of sequence and chiral content enhances therapeutic potential of tilapia piscidin peptides” (Eur J Med Chem, 2024)
Converted amounts (≈) assume the structure as drawn.

Key:
Klebsiella pneumoniae [1] = experiment: Bactericidal activity against Klebsiella pneumoniae 10692 assessed as inhibition of bacterial growth incubated for 16 to 20 hrs; assay type: functional; settings: time 16-20 hrs
Pseudomonas aeruginosa [2] = experiment: Bactericidal activity against Pseudomonas aeruginosa 19660 assessed as inhibition of bacterial growth incubated for 16 to 20 hrs in presence of human serum; assay type: functional; settings: time 16-20 hrs
Klebsiella oxytoca [3] = experiment: Bactericidal activity against Klebsiella oxytoca 13985 assessed as inhibition of bacterial growth incubated for 16 to 20 hrs in presence of human serum; assay type: functional; settings: time 16-20 hrs
Escherichia coli [4] = experiment: Bactericidal activity against Escherichia coli 10675 assessed as inhibition of bacterial growth incubated for 16 to 20 hrs; assay type: functional; settings: time 16-20 hrs
[5] = tested on: Staphylococcus haemolyticus; experiment: Antibacterial activity against Staphylococcus haemolyticus 15237 assessed as inhibition of bacterial growth incubated for 16 to 20 hrs; assay type: functional; settings: time 16-20 hrs
Salmonella typhimurium [6] = experiment: Bactericidal activity against Salmonella typhimurium DT104 assessed as inhibition of bacterial growth incubated for 16 to 20 hrs in presence of human serum; assay type: functional, Salmonella enterica subsp. enterica serovar Typhimurium; settings: Salmonella enterica, time 16-20 hrs
[7] = tested on: Staphylococcus haemolyticus; experiment: Bactericidal activity against Staphylococcus haemolyticus 15237 assessed as inhibition of bacterial growth incubated for 16 to 20 hrs; assay type: functional; settings: time 16-20 hrs
Enterococcus faecium [8] = experiment: Antibacterial activity against Enterococcus faecium 10067 assessed as inhibition of bacterial growth incubated for 16 to 20 hrs in presence of human serum; assay type: functional; settings: time 16-20 hrs
Vibrio vulnificus [9] = experiment: Antibacterial activity against Vibrio vulnificus 204 assessed as inhibition of bacterial growth incubated for 16 to 20 hrs in presence of human serum; assay type: functional; settings: time 16-20 hrs
Klebsiella pneumoniae [10] = experiment: Bactericidal activity against Klebsiella pneumoniae TL 297 assessed as inhibition of bacterial growth incubated for 16 to 20 hrs in presence of human serum; assay type: functional; settings: time 16-20 hrs
Salmonella typhimurium [11] = experiment: Antibacterial activity against Salmonella typhimurium DT104 assessed as inhibition of bacterial growth incubated for 16 to 20 hrs; assay type: functional, Salmonella enterica subsp. enterica serovar Typhimurium; settings: Salmonella enterica, time 16-20 hrs
Salmonella enterica [12] = experiment: Bactericidal activity against Salmonella enterica 15455 assessed as inhibition of bacterial growth incubated for 16 to 20 hrs in presence of human serum; assay type: functional; settings: time 16-20 hrs
Klebsiella pneumoniae [13] = experiment: Antibacterial activity against Klebsiella pneumoniae TL 297 assessed as inhibition of bacterial growth incubated for 16 to 20 hrs in presence of human serum; assay type: functional; settings: time 16-20 hrs
Acinetobacter baumannii [14] = experiment: Bactericidal activity against Acinetobacter baumannii 10591 assessed as inhibition of bacterial growth incubated for 16 to 20 hrs; assay type: functional; settings: time 16-20 hrs
Klebsiella pneumoniae [15] = experiment: Bactericidal activity against Klebsiella pneumoniae BAA 2473 assessed as inhibition of bacterial growth incubated for 16 to 20 hrs; assay type: functional; settings: time 16-20 hrs
Klebsiella oxytoca [16] = experiment: Bactericidal activity against Klebsiella oxytoca 13985 assessed as inhibition of bacterial growth incubated for 16 to 20 hrs; assay type: functional; settings: time 16-20 hrs
Escherichia coli [17] = experiment: Bactericidal activity against Escherichia coli 10675 assessed as inhibition of bacterial growth incubated for 16 to 20 hrs in presence of human serum; assay type: functional; settings: time 16-20 hrs
Salmonella typhimurium [18] = experiment: Bactericidal activity against Salmonella typhimurium DT104 assessed as inhibition of bacterial growth incubated for 16 to 20 hrs; assay type: functional, Salmonella enterica subsp. enterica serovar Typhimurium; settings: Salmonella enterica, time 16-20 hrs
Klebsiella oxytoca [19] = experiment: Antibacterial activity against Klebsiella oxytoca 13985 assessed as inhibition of bacterial growth incubated for 16 to 20 hrs; assay type: functional; settings: time 16-20 hrs
Acinetobacter baumannii [20] = experiment: Bactericidal activity against Acinetobacter baumannii 10591 assessed as inhibition of bacterial growth incubated for 16 to 20 hrs in presence of human serum; assay type: functional; settings: time 16-20 hrs
Rhizopus arrhizus [21] = experiment: Antifungal activity against Rhizopus oryzae 34550 assessed as inhibition of fungal growth incubated for 16 to 20 hrs; assay type: functional; settings: time 16-20 hrs
Enterococcus faecium [22] = experiment: Bactericidal activity against Enterococcus faecium 10067 assessed as inhibition of bacterial growth incubated for 16 to 20 hrs in presence of human serum; assay type: functional; settings: time 16-20 hrs
Pseudomonas aeruginosa [23] = experiment: Antibacterial activity against Pseudomonas aeruginosa 19660 assessed as inhibition of bacterial growth incubated for 16 to 20 hrs in presence of human serum; assay type: functional; settings: time 16-20 hrs
Salmonella enterica [24] = experiment: Antibacterial activity against Salmonella enterica 15455 assessed as inhibition of bacterial growth incubated for 16 to 20 hrs in presence of human serum; assay type: functional; settings: time 16-20 hrs
Klebsiella oxytoca [25] = experiment: Antibacterial activity against Klebsiella oxytoca 13985 assessed as inhibition of bacterial growth incubated for 16 to 20 hrs in presence of human serum; assay type: functional; settings: time 16-20 hrs
Salmonella typhimurium [26] = experiment: Antibacterial activity against Salmonella typhimurium DT104 assessed as inhibition of bacterial growth incubated for 16 to 20 hrs in presence of human serum; assay type: functional, Salmonella enterica subsp. enterica serovar Typhimurium; settings: Salmonella enterica, time 16-20 hrs
Enterococcus faecium [27] = experiment: Antibacterial activity against Enterococcus faecium 10067 assessed as inhibition of bacterial growth incubated for 16 to 20 hrs; assay type: functional; settings: time 16-20 hrs
Vibrio vulnificus [28] = experiment: Antibacterial activity against Vibrio vulnificus 204 assessed as inhibition of bacterial growth incubated for 16 to 20 hrs; assay type: functional; settings: time 16-20 hrs
Staphylococcus aureus [29] = experiment: Bactericidal activity against Staphylococcus aureus 10780 assessed as inhibition of bacterial growth incubated for 16 to 20 hrs; assay type: functional; settings: time 16-20 hrs
Pseudomonas aeruginosa [30] = experiment: Antibacterial activity against Pseudomonas aeruginosa 19660 assessed as inhibition of bacterial growth incubated for 16 to 20 hrs; assay type: functional; settings: time 16-20 hrs
Escherichia coli [31] = experiment: Antibacterial activity against Escherichia coli 10675 assessed as inhibition of bacterial growth incubated for 16 to 20 hrs; assay type: functional; settings: time 16-20 hrs
Enterococcus faecalis [32] = experiment: Antibacterial activity against Enterococcus faecalis 10066 assessed as inhibition of bacterial growth incubated for 16 to 20 hrs; assay type: functional; settings: time 16-20 hrs
Klebsiella aerogenes [33] = experiment: Antibacterial activity against Enterobacter aerogenes 15630 assessed as inhibition of bacterial growth incubated for 16 to 20 hrs; assay type: functional; settings: time 16-20 hrs
Rhizopus arrhizus [34] = experiment: Fungicidal activity against Rhizopus oryzae 34550 assessed as inhibition of fungal growth incubated for 16 to 20 hrs in presence of human serum; assay type: functional; settings: time 16-20 hrs
Acinetobacter baumannii [35] = experiment: Antibacterial activity against Acinetobacter baumannii 10591 assessed as inhibition of bacterial growth incubated for 16 to 20 hrs; assay type: functional; settings: time 16-20 hrs
Staphylococcus aureus [36] = experiment: Antibacterial activity against Staphylococcus aureus 10780 assessed as inhibition of bacterial growth incubated for 16 to 20 hrs; assay type: functional; settings: time 16-20 hrs
Klebsiella pneumoniae [37] = experiment: Antibacterial activity against Klebsiella pneumoniae 10692 assessed as inhibition of bacterial growth incubated for 16 to 20 hrs; assay type: functional; settings: time 16-20 hrs
Yersinia enterocolitica [38] = experiment: Antibacterial activity against Yersinia enterocolitica 13999 assessed as inhibition of bacterial growth incubated for 16 to 20 hrs; assay type: functional; settings: time 16-20 hrs
Pseudomonas aeruginosa [39] = experiment: Bactericidal activity against Pseudomonas aeruginosa 19660 assessed as inhibition of bacterial growth incubated for 16 to 20 hrs; assay type: functional; settings: time 16-20 hrs
Enterococcus faecium [40] = experiment: Bactericidal activity against Enterococcus faecium 10067 assessed as inhibition of bacterial growth incubated for 16 to 20 hrs; assay type: functional; settings: time 16-20 hrs
Acinetobacter baumannii [41] = experiment: Antibacterial activity against Acinetobacter baumannii 10591 assessed as inhibition of bacterial growth incubated for 16 to 20 hrs in presence of human serum; assay type: functional; settings: time 16-20 hrs
Rhizopus arrhizus [42] = experiment: Fungicidal activity against Rhizopus oryzae 34550 assessed as inhibition of fungal growth incubated for 72 hrs; assay type: functional
Klebsiella aerogenes [43] = experiment: Bactericidal activity against Enterobacter aerogenes 15630 assessed as inhibition of bacterial growth incubated for 16 to 20 hrs; assay type: functional; settings: time 16-20 hrs
Vibrio vulnificus [44] = experiment: Bactericidal activity against Vibrio vulnificus 204 assessed as inhibition of bacterial growth incubated for 16 to 20 hrs; assay type: functional; settings: time 16-20 hrs
Salmonella enterica [45] = experiment: Bactericidal activity against Salmonella enterica 15455 assessed as inhibition of bacterial growth incubated for 16 to 20 hrs; assay type: functional; settings: time 16-20 hrs
Yersinia enterocolitica [46] = experiment: Bactericidal activity against Yersinia enterocolitica 13999 assessed as inhibition of bacterial growth incubated for 16 to 20 hrs; assay type: functional; settings: time 16-20 hrs
Enterococcus faecalis [47] = experiment: Bactericidal activity against Enterococcus faecalis 10066 assessed as inhibition of bacterial growth incubated for 16 to 20 hrs; assay type: functional; settings: time 16-20 hrs
Escherichia coli [48] = experiment: Antibacterial activity against Escherichia coli 10675 assessed as inhibition of bacterial growth incubated for 16 to 20 hrs in presence of human serum; assay type: functional; settings: time 16-20 hrs
Klebsiella pneumoniae [49] = experiment: Antibacterial activity against Klebsiella pneumoniae BAA 2473 assessed as inhibition of bacterial growth incubated for 16 to 20 hrs; assay type: functional; settings: time 16-20 hrs
Vibrio vulnificus [50] = experiment: Bactericidal activity against Vibrio vulnificus 204 assessed as inhibition of bacterial growth incubated for 16 to 20 hrs in presence of human serum; assay type: functional; settings: time 16-20 hrs
Salmonella enterica [51] = experiment: Antibacterial activity against Salmonella enterica 15455 assessed as inhibition of bacterial growth incubated for 16 to 20 hrs; assay type: functional; settings: time 16-20 hrs

C[C@@H](O)[C@H]1C(=O)N2C(C(=O)O)=C(S[C@@H]3CN[C@H](C(=O)N(C)C)C3)[C@H](C)[C@H]12 [MEROPENEM]
MBC (Klebsiella pneumoniae [1]): 0.2 µM (≈ 0.0767 µg/mL)
MBC (Pseudomonas aeruginosa [2]): 6.25 µM
MBC (Klebsiella oxytoca [3]): < 0.39 µM
MBC (Escherichia coli [4]): 0.2 µM (≈ 0.0767 µg/mL)
MIC [5]: < 1.56 µM
MBC (Salmonella typhimurium [6]): < 0.39 µM
MBC [7]: < 1.56 µM
MIC (Enterococcus faecium [8]): 100 µM
MIC (Vibrio vulnificus [9]): < 0.39 µM
MBC (Klebsiella pneumoniae [10]): 400 µM
MIC (Salmonella typhimurium [11]): < 1.56 µM
MBC (Salmonella enterica [12]): < 0.39 µM
MIC (Klebsiella pneumoniae [13]): 200 µM
MBC (Acinetobacter baumannii [14]): 6.25 µM (≈ 2.4 µg/mL)
MBC (Klebsiella pneumoniae [15]): 400 µM (≈ 153 µg/mL)
MBC (Klebsiella oxytoca [16]): 0.1 µM (≈ 0.0383 µg/mL)
MBC (Escherichia coli [17]): 0.1 µM
MBC (Salmonella typhimurium [18]): > 100 µM
MIC (Klebsiella oxytoca [19]): < 0.39 µM
MBC (Acinetobacter baumannii [20]): 6.25 µM
MIC (Rhizopus arrhizus [21]): > 100 µM
MBC (Enterococcus faecium [22]): 100 µM
MIC (Pseudomonas aeruginosa [23]): 3.13 µM
MIC (Salmonella enterica [24]): < 0.39 µM
MIC (Klebsiella oxytoca [25]): < 0.39 µM
MIC (Salmonella typhimurium [26]): < 0.369 µM
MIC (Enterococcus faecium [27]): 50 µM (≈ 19.2 µg/mL)
MIC (Vibrio vulnificus [28]): < 0.39 µM
MBC (Staphylococcus aureus [29]): 3.13 µM (≈ 1.2 µg/mL)
MIC (Pseudomonas aeruginosa [30]): 3.13 µM (≈ 1.2 µg/mL)
MIC (Escherichia coli [31]): 0.2 µM (≈ 0.0767 µg/mL)
MIC (Enterococcus faecalis [32]): 12.5 µM (≈ 4.79 µg/mL)
MIC (Klebsiella aerogenes [33]): 0.1 µM (≈ 0.0383 µg/mL)
MFC (Rhizopus arrhizus [34]): 100 µM
MIC (Acinetobacter baumannii [35]): 6.25 µM (≈ 2.4 µg/mL)
MIC (Staphylococcus aureus [36]): 0.78 µM (≈ 0.299 µg/mL)
MIC (Klebsiella pneumoniae [37]): 0.2 µM (≈ 0.0767 µg/mL)
MIC (Yersinia enterocolitica [38]): < 1.56 µM
MBC (Pseudomonas aeruginosa [39]): 6.25 µM (≈ 2.4 µg/mL)
MBC (Enterococcus faecium [40]): 100 µM (≈ 38.3 µg/mL)
MIC (Acinetobacter baumannii [41]): 3.13 µM
MFC (Rhizopus arrhizus [42]): > 100 µM
MBC (Klebsiella aerogenes [43]): 6.25 µM (≈ 2.4 µg/mL)
MBC (Vibrio vulnificus [44]): < 0.39 µM
MBC (Salmonella enterica [45]): < 1.56 µM
MBC (Yersinia enterocolitica [46]): < 1.56 µM
MBC (Enterococcus faecalis [47]): 100 µM (≈ 38.3 µg/mL)
MIC (Escherichia coli [48]): 0.1 µM
MIC (Klebsiella pneumoniae [49]): 800 µM (≈ 307 µg/mL)
MBC (Vibrio vulnificus [50]): < 0.39 µM
MIC (Salmonella enterica [51]): < 1.56 µM
